From patent US20240270786A1, “STEROID COMPOUNDS” (Epirium Bio Inc., priority 2022, published 2024)

What was measured:
Type in all cases: biochemical, mouse
[1] = system: mitochondrial ATP synthase; assay: Maximal ATP hydrolysis capacity in frozen heart mitochondria; details: oligomycin at different concentrations in the assay media
Description: Plates were loaded with 0.75-1.5 μg of mouse heart mitochondria, or 25 μg of cell lysate. Cell lysates were prepared by subjecting the samples to 4 cycles of free thaw (liquid nitrogen—37° C. water bath) before measuring protein concentration. When assessing compounds effect on respirometry, the compounds were added in MAS after sample centrifugation. Initial respiration of the samples was sustained by the addition of 5 mM succinate+2 μM rotenone in the MAS after centrifugation. Injections were performed at the following final concentration in the well: Antimycin A (2 μM), oligomycin (5 μM), FCCP (1 μM), ATP (20 mM). To assess maximal ATP concentration, ATP was injected consecutively. An additional assay was developed to determine the maximal ATP hydrolysis capacity in frozen mitochondria. Maximal ATP hydrolytic capacity was assessed in frozen heart mitochondria where mitochondrial respiration is inhibited by Antimycin A and maximal ATP hydrolysis is driven by co-injection of FCCP and ATP, followed by inhibition in the presence of oligomycin.

[2] = system: mitochondrial ATP synthase; assay: ATP synthesis (oxygen consumption, Seahorse XF96) in fresh heart mitochondria; details: Complex I or Complex II substrates (FIG. 1, FIG. 2)
Description: (§1) To assess whether the fraction of synthetic and reverse hydrolytic activities of mitochondrial ATP synthase can be measured in the same preparation, a protocol was developed to monitor changes in oxygen consumption and proton release in response to changes in mitochondrial ATP synthase activity. The proton released and the concomitant changes in the pH can be monitored using the ECAR (extracellular acidification) channel in the Agilent Seahorse XF analyzer using isolated mitochondria, to ensure that the changes in pH cannot be attributed to glycolysis or other contributors to ECAR.
Mice were anesthetized with isoflurane followed by a cervical dislocation, and the heart was immediately removed and placed in ice cold relaxation buffer (5 mM sodium pyrophosphate, 100 mM KCl, 5 mM EGTA, 5 mM HEPES; pH 7.4). […] The mitochondrial pellets were re-suspended in ice cold HES buffer and mitochondrial protein was measured with a BCA assay (Pierce). […]
Oxygen consumption was measured in isolated fresh intact mitochondria from mouse heart, as oxygen consumption is linked to maximal ATP synthesis and proton release when mitochondria are respiring either in the presence of substrates and ADP (ATP synthesizing mitochondria or state 3) or in the presence of substrates but not ADP (state 4). […]

[3] = system: mitochondrial ATP synthase; assay: ATP hydrolysis (acidification, Seahorse XF96) in fresh heart mitochondria; details: fresh heart mitochondria (FIG. 1, FIG. 2)
Description: as §1
Mice were anesthetized with isoflurane followed by a cervical dislocation, and the heart was immediately removed and placed in ice cold relaxation buffer (5 mM sodium pyrophosphate, 100 mM KCl, 5 mM EGTA, 5 mM HEPES; pH 7.4). The heart was squeezed with tweezers to remove blood, minced with scissors, and then placed in a glass-glass Dounce homogenizer with 3 mL of HES homogenization buffer (250 mM sucrose, 5 mM HEPES, 1 mM EDTA; pH to 7.2, adjusted with KOH). The heart tissue was homogenized first with the loose pestle and followed by the tight pestle. The homogenized tissue was placed in a pre-chilled 15 mL conical tube and centrifuged at 900×g (4° C.) for 10 minutes (min). The supernatant was removed, placed in a new tube and centrifuged again at 900×g for 10 min. The supernatant was then transferred to 2 mL microcentrifuge tubes and centrifuged at 10,000×g (4° C.) for 10 min. The mitochondrial pellets were re-suspended in ice cold HES buffer and mitochondrial protein was measured with a BCA assay (Pierce). The concentrated mitochondrial pellet was stored on ice. […]
ATP hydrolysis capacity or state 4 acidification was measured using Seahorse XF96 as described in Divakaruni et al. (2018) Anal Biochem 552:60-65 and Acin-Perez et al. (2021) Life 11(9):949, in MAS (70 mM Sucrose, 220 mM Mannitol, 5 mM KH2PO4, 5 mM MgCl2, 1 mM EGTA, 2 mM HEPES; pH 7.2). […]

In the case of CC[C@H]1/C=C/C=C/C[C@@H](C)[C@H](O)[C@@](C)(O)C(=O)[C@@H](C)[C@H](O)[C@@H](C)C(=O)[C@@H](C)[C@H](O)[C@@H](C)/C=C/C(=O)O[C@@H]2[C@H](C)[C@H](CC1)O[C@]1(CC[C@H](C)[C@H](C[C@@H](C)O)O1)[C@H]2C [Oligomycin, oligomycin, reference compound], the ATP hydrolysis [1] is reported as “dose dependent inhibition of ATP hydrolysis”, the ATP synthesis [2] is reported as “worked as expected” and the ATP hydrolysis [3] is reported as “worked as expected”.
